In patent publication US20240383882A1 (Ecstasy LLC, priority 2020, published 2024):
Where a name gives a salt, the structure may show the parent alone. Read-outs that look alike come from different tables or passages of the source.

Test system: male C57BL/6 mice
Assay: 55° C. warm-water tail-flick test (antinociception)
Assay type: in vivo
Conditions: Mus musculus
Outline: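 Subcutaneous dosing, then tail immersion in 55° C water at 30–120 min; latency normalized as 100×(test−control)/(20−control), using a 20 s cutoff, after excluding mice not responding within 2 s at baseline. Values expressed as ED50 (mg/kg).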

[1] = half maximal effective dose in mice, using one of: warm water tail-flick test, spared nerve injury, chronic constriction injury, or Complete Freund's adjuvant induced inflammatory pain (not stated which per compound), read-out: Biological Activity (ED50)
[2] = sc, 0.5 h, compounds of Table I, s.c., 30 min, 55° C. water, configuration tested as in Table II, read-out: ED50 (mg/kg) at 30 min on C57BL/6 mice in Warm-water Tail-flick Test
[3] = sc, 0.5 h, compounds of Table V, s.c., 30 min, 55° C. water, read-out: ED50 (mg/kg) at 30 min on C57BL/6 mice in Warm-water Tail-flick Test (same conditions as Table II)

Row | Compound | ED50 [1] [mg/kg] | further results
1 | CNC(=O)[C@]1(CCc2ccc(C#N)cc2)CCN(C(C)(C)c2ccccn2)C1 [Compound 155, (R)-3-(4-cyanophenethyl)-N-methyl-1-(2-(pyridin-2-yl)propan-2-yl)pyrrolidine-3-carboxamide] | ≤ 30 | –
2 | CC(C)(c1ccccn1)N1CC[C@@](CCc2ccc(C#N)cc2)(C(=O)NC2(C#N)COC2)C1 [Compound 208, (R)-N-(3-cyanooxetan-3-yl)-3-(4-cyanophenethyl)-1-(2-(pyridin-2-yl)propan-2-yl)pyrrolidine-3-carboxamide] | ≤ 30 | –
3 | CC(C)(c1ccccn1)N1CC[C@](CO)(CCc2ccc(C#N)s2)C1 [Compound 147, (R)-5-(2-(3-(hydroxymethyl)-1-(2-(pyridin-2-yl)propan-2-yl)pyrrolidin-3-yl)ethyl)thiophene-2-carbonitrile] | > 50 | –
4 | Cc1ccc(C(C)(C)N2CC[C@@](CCc3ccc(C#N)cc3)(COS(C)=O)C2)cn1 (stereo partly drawn) [Compound 20, ((R)-3-(4-cyanophenethyl)-1-(2-(6-methylpyridin-3-yl)propan-2-yl)pyrrolidin-3-yl)methyl methanesulfinate] | ≤ 30 | –
5 | CC(C)c1nc(C(C)(C)N2CC[C@@](CCc3ccc(C#N)cc3)(C3CCCO3)C2)cs1 (single isomer, unassigned) [Compound 30, 4-(2-((R)-1-(2-(2-isopropylthiazol-4-yl)propan-2-yl)-3-((R or S)-tetrahydrofuran-2-yl)pyrrolidin-3-yl)ethyl) benzonitrile] | > 50 | –
6 | N#Cc1ccc(CC[C@@]2(C3CCO3)CCN(Cc3cccnc3)C2)cc1 (single isomer, unassigned) [Compound 11, 4-(2-((R)-3-((R or S)-oxetan-2-yl)-1-(pyridin-3-ylmethyl)pyrrolidin-3-yl)ethyl) benzonitrile] | ≤ 30 | –
7 | CC(C)(c1ccccn1)N1CC[C@@](CCc2cccc(C#N)c2)([C@H](O)C(F)(F)F)C1 [Compound 133, 3-(2-((R)-1-(2-(pyridin-2-yl)propan-2-yl)-3-((S)-2,2,2-trifluoro-1-hydroxyethyl)pyrrolidin-3-yl)ethyl) benzonitrile] | > 50 | –
8 | CC(C)(c1ccc(F)cn1)N1CC[C@@](CO)(CCc2ccc(C#N)cc2)C1 [Compound 226, (S)-4-(2-(1-(2-(5-fluoropyridin-2-yl)propan-2-yl)-3-(hydroxymethyl)pyrrolidin-3-yl)ethyl) benzonitrile] | > 50 | –
9 | CCOCC1(CCc2ccc(F)cc2)CCN(Cc2ccccc2)C1 (stereo in doubt) [Compound 4, (S)-1-benzyl-3-(ethoxymethyl)-3-(4-fluorophenethyl) pyrrolidine] | > 50 | ED50 [2]: ≤ 30 mg/kg; ED50 (sc, 0.5 h, compounds of Table III, s.c., 30 min, 55° C. water, configuration tested as in Table IV, read-out: ED50 (mg/kg) at 30 min on C57BL/6 mice in Warm-water Tail-flick Test (same as Table II)): > 50 mg/kg; ED50 [3]: ≤ 30 mg/kg
10 | Cc1ccc(C(C)(C)N2CC[C@@](CCc3ccc(F)cc3)(C(O)C(F)(F)F)C2)cn1 (single isomer, unassigned) [Compound 78] | ≤ 30 | –
11 | CCOC(c1ccccc1)C1(CCc2ccc(F)s2)CCN(C(C)(C)c2ccc(C)nc2)C1 (single isomer, unassigned) [Compound 97, 5-(2-((R or S)-3-((R or S)-ethoxy(phenyl)methyl)-3-(2-(5-fluorothiophen-2-yl)ethyl)pyrrolidin-1-yl)propan-2-yl)-2-methylpyridine citrate] | – | ED50 [2]: ≤ 30 mg/kg
12 | CC(C)(c1ccccn1)N1CC[C@@](CCc2ccc(C#N)cc2)(CS(C)(=O)=O)C1 [Compound 162, (R)-4-(2-(3-((methylsulfonyl)methyl)-1-(2-(pyridin-2-yl)propan-2-yl)pyrrolidin-3-yl)ethyl) benzonitrile] | > 50 | –
13 | CCOC[C@]1(CCc2ccc(F)cc2)CCN(Cc2ccc(OC)nc2)C1 [Compound 1, (R)-5-((3-(ethoxymethyl)-3-(4-fluorophenethyl)pyrrolidin-1-yl)methyl)-2-methoxypyridine] | > 50 | –
14 | CC(C)(c1ccc(S(C)(=O)=O)cc1)N1CC[C@@](CCc2ccc(F)cc2)(COCc2ccccc2)C1 [Compound 33, (R)-3-((benzyloxy)methyl)-3-(4-fluorophenethyl)-1-(2-(4-(methylsulfonyl)phenyl)propan-2-yl)pyrrolidine] | > 50 | –
15 | CC(C)(c1ccccn1)N1CC[C@@](CCc2ccc(C#N)cc2)(c2nnco2)C1 [Compound 124, (R)-4-(2-(3-(1,3,4-oxadiazol-2-yl)-1-(2-(pyridin-2-yl)propan-2-yl)pyrrolidin-3-yl)ethyl) benzonitrile] | > 50 | –
16 | CC(C)(c1ccccn1)N1CC[C@@](CCc2ccc(C#N)cc2)(CNC2(C(F)(F)F)CC2)C1 [Compound 203, (S)-4-(2-(1-(2-(pyridin-2-yl)propan-2-yl)-3-(((1-(trifluoromethyl)cyclopropyl)amino)methyl)pyrrolidin-3-yl)ethyl) benzonitrile] | > 50 | –
17 | CC(C)(c1ccccn1)N1CC[C@@](CCc2ccc(C#N)cc2)(CNC2(C(F)(F)F)COC2)C1 [Compound 202, (S)-4-(2-(1-(2-(pyridin-2-yl)propan-2-yl)-3-(((3-(trifluoromethyl)oxetan-3-yl)amino)methyl)pyrrolidin-3-yl)ethyl) benzonitrile] | > 50 | –
18 | CCOC(C(F)(F)F)(C(F)(F)F)[C@]1(CCc2ccc(F)cc2)CCN(Cc2ccc(C)nc2)C1 [Compound 13, (R)-5-((3-(2-ethoxy-1,1,1,3,3,3-hexafluoropropan-2-yl)-3-(4-fluorophenethyl)pyrrolidin-1-yl)methyl)-2-methylpyridine] | > 50 | ED50 [2]: ≤ 30 mg/kg; ED50 [3]: > 50 mg/kg
19 | OCC1(CCc2ccc(F)cc2)CCN(Cc2cccnc2)C1 (single isomer, unassigned) [Compound 44] | – | ED50 [2]: ≤ 30 mg/kg
20 | CC(C)(c1ccccn1)N1CC[C@](C#N)(CCc2ccc(C#N)cc2)C1 [Compound 179, (R)-3-(4-cyanophenethyl)-1-(2-(pyridin-2-yl)propan-2-yl)pyrrolidine-3-carbonitrile] | > 50 | –
21 | CCOC[C@]1(CCc2ccccc2C#N)CCN(C(C)(C)c2ccccn2)C1 [Compound 130, (R)-2-(2-(3-(ethoxymethyl)-1-(2-(pyridin-2-yl)propan-2-yl)pyrrolidin-3-yl)ethyl) benzonitrile] | > 50 | –
22 | Cc1ccc(C(C)(C)N2CCC(CCc3cccs3)(COC(F)F)C2)cn1 (single isomer, unassigned) [Compound 82, (R or S)-5-(2-(3-((difluoromethoxy)methyl)-3-(2-(thiophen-2-yl)ethyl)pyrrolidin-1-yl)propan-2-yl)-2-methylpyridine citarte] | – | ED50 [2]: ≤ 30 mg/kg
23 | COc1ccc(CN2CC[C@@](CCc3ccc(C#N)cc3)(C3OCC3(C)C)C2)cc1 (single isomer, unassigned) [Compound 205, 4-(2-((R)-3-((R or S)-3,3-dimethyloxetan-2-yl)-1-(4-methoxybenzyl)pyrrolidin-3-yl)ethyl) benzonitrile] | ≤ 30 | –
24 | CC(C)(c1ccccn1)N1CC[C@@](CCc2ccc(F)c(F)c2)(C(O)C(F)(F)F)C1 (single isomer, unassigned) [Compound 150, (R or S)-1-((R)-3-(3,4-difluorophenethyl)-1-(2-(pyridin-2-yl)propan-2-yl)pyrrolidin-3-yl)-2,2,2-trifluoroethan-1-ol] | ≤ 30 | –
25 | Cc1ccc(S(=O)(=O)NC(c2ccccn2)C2(CCc3ccc(F)s3)CCN(C(C)(C)c3ccc(C)nc3)C2)cc1 (single isomer, unassigned) [Compound 321] | – | ED50 [2]: ≤ 30 mg/kg
